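Test compounds were applied to cells in 96-well plates for 48 hours at 5 doses. GI50: concentration for 50% inhibition of growth.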 Calls of active or inactive are those of the source. No stated cut-off is given here; in the data, active = GI50 up to about 1.1 µM and inactive = higher.
How the values were obtained:
Test in all cases: DTP human tumour cell line panel, 48 h
[1] = tested on: 786-0
[2] = tested on: BT-549
[3] = tested on: CAKI-1
[4] = tested on: HCC 2998
[5] = tested on: HL-60
[6] = tested on: LOX IMVI
[7] = tested on: MCF7
[8] = tested on: MDA-MB-231
[9] = tested on: MDA-MB-435
[10] = tested on: MDA-N
[11] = tested on: NCI-H522
[12] = tested on: NCI/ADR-RES
[13] = tested on: OVCAR-8
[14] = tested on: PC-3
[15] = tested on: SNB-19
[16] = tested on: SNB-75
[17] = tested on: SR
[18] = tested on: T47D
[19] = tested on: Malme-3M
[20] = tested on: SNB-78

Measured: GI50

CC(C)(C)[Si](C)(C)OC[C@H](/C=C\CCCC(=O)O)NC1(c2ccccc2)c2ccccc2-c2ccccc21
inactive: [1] 14 µM | [2] 24.5 µM | [3] 11.2 µM | [4] 14.5 µM | [5] 8.53 µM | [6] 12.9 µM | [7] 10.4 µM | [8] 14.3 µM | [9] 13.9 µM | [10] 20.6 µM | [11] 18.7 µM | [12] 9.75 µM | [13] 16.6 µM | [14] 6.52 µM | [15] 32.9 µM | [16] 29.4 µM | [17] 4.65 µM | [18] 7.38 µM

CCOP(=O)(CCC(O)CNc1nc(N)nc(Cl)c1/N=N/c1ccc(Cl)cc1)OCC (configuration not stated)
inactive: [1] 7.93 µM | [2] 7.38 µM | [3] 2.96 µM | [4] 13.3 µM | [5] 3.5 µM | [6] 8.67 µM | [7] 11.5 µM | [8] 19.3 µM | [9] 13.2 µM | [10] 12.4 µM | [19] 5.2 µM | [11] 8.99 µM | [12] 11.5 µM | [13] 17.7 µM | [14] 12.4 µM | [16] 4.5 µM | [17] 7.87 µM | [18] 16.9 µM

CCCC1(N)CC(OC)OC(C)C1O (configuration not stated)
inactive: [1] > 100 µM | [2] > 100 µM | [3] > 100 µM | [4] > 100 µM | [5] > 100 µM | [6] > 100 µM | [7] > 100 µM | [8] > 100 µM | [9] > 100 µM | [10] > 100 µM | [19] > 100 µM | [11] > 100 µM | [12] > 100 µM | [13] > 100 µM | [14] > 100 µM | [15] > 100 µM | [16] > 100 µM | [17] > 100 µM | [18] > 100 µM

Cc1cc(S(=O)(=O)O)c(NC(=O)C(=O)C2C=CCS2(=O)=O)cc1Cl (configuration not stated)
inactive: [1] > 100 µM | [3] > 100 µM | [4] > 100 µM | [5] > 100 µM | [6] > 100 µM | [19] > 100 µM | [11] > 100 µM | [13] > 100 µM | [15] > 100 µM | [16] > 100 µM | [20] > 100 µM | [17] > 100 µM

COC1C(=[N+]=[N-])C(=O)NC(=O)N1C1OC(COC(c2ccccc2)(c2ccccc2)c2ccccc2)C(O)C1O (configuration not stated)
inactive: [3] 18.6 µM | [4] 18.4 µM | [5] 23.2 µM | [6] 15.5 µM | [19] 16.1 µM | [11] 16.2 µM | [13] 19.2 µM | [15] 19.7 µM | [16] 15 µM | [20] 18 µM

CCOC(=O)C(C(C)=O)C1CC=CC1 (configuration not stated)
inactive: [1] > 100 µM | [3] > 100 µM | [4] > 100 µM | [5] > 100 µM | [6] > 100 µM | [19] > 100 µM | [13] > 100 µM | [15] > 100 µM | [16] > 100 µM | [20] > 100 µM

O=c1[nH]c(=O)n(C2CC(O)C(CO)O2)cc1C#Cc1cc(C(F)(F)F)cc(C(F)(F)F)c1 (configuration not stated)
inactive: [3] > 100 µM | [4] > 32 µM | [5] > 60.4 µM | [6] > 25.5 µM | [19] 34.8 µM | [11] 25.1 µM | [15] 20.1 µM | [16] 21.1 µM | [20] 50.7 µM | [17] > 100 µM

CC1(C)CCC[C@@]2(C)C1C[C@H](O)[C@@]1(C)O[C@@](C)([C@H](O)CO)CCC21 (some centres not stated)
inactive: [1] 44 µM | [3] 35.8 µM | [4] 60.8 µM | [5] 24.9 µM | [19] 40.6 µM | [11] 25.9 µM | [13] 39.3 µM | [15] 49.8 µM | [16] 20.1 µM | [20] 40.3 µM

COc1ccc(N2C(=O)c3c(c4[nH]c5ccc(OC)cc5c4c4ccc(C(C)(C)C)cc34)C2=O)cc1
inactive: [1] > 100 µM | [4] > 100 µM | [5] 53.2 µM | [19] > 100 µM | [11] > 100 µM | [13] 92.7 µM | [15] > 100 µM | [16] > 100 µM | [20] > 100 µM

O=C1C=CC(=O)C1(Br)Br
inactive: [1] 9.18 µM | [2] 11.3 µM | [3] 5.11 µM | [4] 16.2 µM | [5] 11.4 µM | [6] 12.1 µM | [7] 11 µM | [8] 8.22 µM | [9] 13.4 µM | [10] 11.5 µM | [19] 20 µM | [11] 6.27 µM | [12] 20.7 µM | [13] 8.3 µM | [14] 14.6 µM | [15] 17.1 µM | [16] 12 µM | [17] 3.42 µM | [18] 14.8 µM

O=c1c(C(c2ccccn2)c2c(O)oc3cc(O)ccc3c2=O)c(O)oc2cc(O)ccc12
inactive: [1] > 100 µM | [2] > 100 µM | [3] > 100 µM | [4] > 100 µM | [6] > 100 µM | [7] > 100 µM | [8] > 100 µM | [9] > 100 µM | [10] > 100 µM | [11] > 100 µM | [12] > 100 µM | [13] 44.2 µM | [14] > 100 µM | [15] > 100 µM | [16] 66.2 µM | [17] > 100 µM | [18] > 100 µM

Reference: ChEMBL document CHEMBL1201862, “PubChem BioAssay data set” (2004)
